Laboratory results published in patent US4282247A, “5-(2-Hydroxy-3-thiopropoxy) chromone-2-carboxylic acids chemical process and pharmaceutical compositions” (CM Industries, priority 1979, dated 1981).
Counter-ions that a name gives are not always drawn. Like-named read-outs stand apart in the source and are kept apart here.

Experiments:
[1] = test system: passive cutaneous anaphylaxis; test: Inhibition of passive cutaneous anaphylaxis in rats (oral), % versus controls; type: in vivo; conditions: rat, os
Protocol: The 5-(2-hydroxy-3-thiopropoxy)chromone-2-carboxylic acids, their salts and their esters have been tested in rats by oral route to evaluate their ability to inhibit passive cutaneous anaphylaxis in animals sensitized to egg albumin and Bordetella pertussis.
The percentages of inhibition, in comparison with the controls, of the allergic reaction induced by passive cutaneous anaphylaxis in rats treated with 0.1 ml of an homologous antiserum diluted 1/10 and injected by intradermal route, are summarized in table I.

[2] = LD50 mouse, os; conditions: in vivo, po
[3] = test system: passive cutaneous anaphylaxis; test: ED50 for inhibition of passive cutaneous anaphylaxis in rats sensitized to egg albumin and Bordetella pertussis, oral and intravenous; type: in vivo; conditions: Table IV, rat
Excerpt: The ability of the 5-(2-hydroxy-3-thiopropoxy) chromone-2-carboxylic acids of the present invention and of the salts and esters thereof of inhibiting--by oral as well as by intravenous route--the passive cutaneous anaphylaxis in rats sensitized to egg albumin and Bordetella pertussis has been compared to that of two reference compounds: […]

[4] = po, Table I, °° significant P ≤ 0.01, read-out: Δ % in comparison with controls (inhibition of passive cutaneous anaphylaxis)
[5] = po, Table I, °° P ≤ 0.01, ° P ≤ 0.05 (product B), read-out: Δ % in comparison with controls (inhibition of passive cutaneous anaphylaxis)
[6] = po, Table III, 10 mg/kg, °° P ≤ 0.01, * non significant (product D), read-out: Δ % in comparison with controls (inhibition of passive cutaneous anaphylaxis)
[7] = po, Table III, °° P ≤ 0.01, * non significant (product D), read-out: Δ % in comparison with controls (inhibition of passive cutaneous anaphylaxis)

Row | Compound | change in vivo at 100 mg/kg [1, 5] [%] | LD50 [2] [mg/kg] | ED50 ([3]; i.v., read-out: ED50) [mg/kg] | also measured
1 | CCCCSCC(O)COc1cccc2oc(C(=O)OCC)cc(=O)c12 (stereo not shown) [CM 57193, Ethyl 5-(2-hydroxy-3-butylthiopropoxy)chromone-2-carboxylate] | -70.8 | > 1000 | – | change in vivo at 50 mg/kg [1, 4]: -47.6%
2 | CCCCSCC(O)COc1cccc2oc(C(=O)O)cc(=O)c12.O (stereo not shown) [CM 57194, 5-(2-hydroxy-3-butylthiopropoxy)chromone-2-carboxylic acid monohydrate] | -55.4 | > 1000 | – | –
3 | CCOC(=O)c1cc(=O)c2c(OCC(O)CSC)cccc2o1 (stereo not shown) [CM 57201, ethyl 5-(2-hydroxy-3-methylthiopropoxy)chromone-2-carboxylate] | -75.1 | > 1000 | 0.11 | ED50 ([3]; po, os, read-out: ED50): 5.39 mg/kg; Δ % in comparison with controls (inhibition of passive cutaneous anaphylaxis) ([1]; Table II, 10 mg/kg, °° P ≤ 0.01, * non significant (product C)): -65.55%; change in vivo at 10 mg/kg ([1]; po, Table I, 10 mg/kg, °° significant P ≤ 0.01, read-out: Δ % in comparison with controls (inhibition of passive cutaneous anaphylaxis)): -65.5%
4 | CSCC(O)COc1cccc2oc(C(=O)O)cc(=O)c12 (stereo not shown) [CM 57202, 5-(2-hydroxy-3-methylthiopropoxy)chromone-2-carboxylic acid] | – | – | 0.13 | ED50 ([3]; po, os, read-out: ED50): 38.1 mg/kg; change in vivo at 10 mg/kg [1, 6]: -53%; change in vivo at 100 mg/kg [1, 7]: -70.4%
5 | CCOC(=O)c1cc(=O)c2c(OCC(O)CSC(C)C)cccc2o1 (stereo not shown) [CM 57215, Ethyl 5-(2-hydroxy-3-isopropylthiopropoxy)chromone-2-carboxylate] | -75 | > 1000 | – | –
6 | CCOC(=O)c1cc(=O)c2c(OCC(O)CSCC)cccc2o1 (stereo not shown) [CM 57249, Ethyl 5-(2-hydroxy-3-ethylthiopropoxy)chromone-2-carboxylate] | -75.8 | > 1000 | – | change in vivo at 50 mg/kg [1, 4]: -73%
7 | CCCSCC(O)COc1cccc2oc(C(=O)OCC)cc(=O)c12 (stereo not shown) [CM 57251, Ethyl 5-(2-hydroxy-3-propylthiopropoxy)chromone-2-carboxylate] | -69.1 | > 1000 | – | –
8 | O=C(O)c1cc(=O)c2c(OCC(O)COc3cccc4oc(C(=O)O)cc(=O)c34)cccc2o1 [Product E, 1,3-bis-(2-carboxy-5-chromonyloxy)propane-2-ol sodium salt, reference compound] | – | – | 1.15 | ED50 ([3]; os): inactive
9 | N#Cc1ccc(OCC(O)COc2cccc3oc(C(=O)O)cc(=O)c23)cc1 (stereo not shown) [Product F, 5-(2-hydroxy-3-p-cyanophenoxypropoxy)chromone-2-carboxylic acid, reference compound] | – | – | 0.29 | ED50 ([3]; os): inactive
10 | O=C(O)c1ccc2oc3ccc(OCCO)cc3c(=O)c2c1 [product A, 7-(2-hydroxyethoxy)-9-oxoxanthene-2-carboxylic acid, reference compound] | -66.2 | ~1000 | – | –
11 | CC(=O)c1ccc(O)c(C(=O)O)c1 [product B, 5-acetylsalicylic acid, reference compound] | -29.2 | ~1000 | – | –
12 | CCOC(=O)c1cc(=O)c2c(OCC(O)COC)cccc2o1 (stereo not shown) [product C, ethyl 5-(2-hydroxy-3-methoxypropoxy)chromone-2-carboxylate, reference compound] | – | – | – | change in vivo at 10 mg/kg ([1]; po, Table II, 10 mg/kg, °° P ≤ 0.01, * non significant (product C), read-out: Δ % in comparison with controls (inhibition of passive cutaneous anaphylaxis)): 8.71%
13 | CSCC(O)COc1ccc2c(=O)cc(C(=O)O)oc2c1 (stereo not shown) [product D, 7-(2-hydroxy-3-methylthiopropoxy)chromone-2-carboxylic acid, reference compound] | – | – | – | change in vivo at 10 mg/kg [1, 6]: 17.8%; change in vivo at 100 mg/kg [1, 7]: -16.2%; change in vivo at 200 mg/kg ([1]; po, Table III, 200 mg/kg, ° significant P ≤ 0.05, read-out: Δ % in comparison with controls (inhibition of passive cutaneous anaphylaxis)): -30.1%
